This note sets out measurements from article PMC7857491, “Quantification and characterization of the 5′ exonuclease activity of the lysosomal nuclease PLD3 by a novel cell-based assay” (The Journal of Biological Chemistry, 2020).

Each structure is given as a SMILES string. pIC50: −log10 of the molar value.

For this test, the target named is Phospholipase D3 (PLD3) (Homo sapiens, UniProt Q8IV08).
Chain of Phospholipase D3 (PLD3) (Q8IV08 whole entry): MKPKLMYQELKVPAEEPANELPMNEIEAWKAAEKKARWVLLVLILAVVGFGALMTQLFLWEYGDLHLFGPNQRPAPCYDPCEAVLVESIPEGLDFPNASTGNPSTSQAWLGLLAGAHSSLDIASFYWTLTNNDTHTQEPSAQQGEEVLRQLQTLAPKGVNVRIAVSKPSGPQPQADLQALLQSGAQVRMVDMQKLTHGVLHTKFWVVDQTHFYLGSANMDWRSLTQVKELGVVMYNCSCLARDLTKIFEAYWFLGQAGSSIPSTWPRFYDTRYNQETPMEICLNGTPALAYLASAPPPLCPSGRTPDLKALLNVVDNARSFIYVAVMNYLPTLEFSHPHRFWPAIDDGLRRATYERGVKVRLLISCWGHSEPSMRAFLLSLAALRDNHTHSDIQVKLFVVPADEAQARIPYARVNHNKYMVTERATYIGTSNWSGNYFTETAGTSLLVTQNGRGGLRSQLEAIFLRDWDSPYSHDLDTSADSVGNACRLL

Usually pIC50 stands for −log10 of the IC50, conventionally taken in molar units. The low end stands for a large IC50, the high end for a small IC50. Take `[O]=[V]([OH])([OH])[OH]` [orthovanadate]: the negative logarithm of the IC50 (pIC50) was 5.00.
